pIC50: −log10 of the molar value.

In one assay the target is T1, aurora B-INCENP enzyme (Homo sapiens, UniProt Q96GD4).
T1 construct: 6-histidine; purchased Upstate
Description: In vitro aurora B kinase inhibition test. The class given is biochemical. To be noted: 33P incorporation into peptide substrate, 60 minutes at room temperature, read-out: IC50 (50% inhibition of enzyme activity), aurora B kinase. From the text: (b) In Vitro Aurora B Kinase Inhibition Test
This assay determines the ability of a test compound to inhibit serine-threonine kinase activity. DNA encoding aurora B may be obtained by total gene synthesis or by cloning. This DNA may then be expressed in a suitable expression system to obtain polypeptide with serine-threonine kinase activity. In the case of aurora B, the coding sequence was isolated from cDNA by polymerase chain reaction (PCR) and cloned into the pFastBac system in a manner similar to that described above for aurora A (i.e. to direct expression of a 6-histidine tagged aurora B protein).
For the large scale expression of aurora B kinase activity, Sf21 insect cells were grown at 28° C. in TC100 medium supplemented with 10% foetal calf serum (Viralex) and 0.2% F68 Pluronic (Sigma) on a Wheaton roller rig at 3 r.p.m. When the cell density reached 1.2×10^6 cells ml^−1 they were infected with plaque-pure aurora B recombinant virus at a multiplicity of infection of 1 and harvested 48 hours later. All subsequent purification steps were performed at 4° C. Frozen insect cell pellets containing a total of 2.0×10^8 cells were thawed and diluted with lysis buffer (50 mM HEPES (N-[2-hydroxyethyl]piperazine-N′-[2-ethanesulphonic acid]) pH7.5 at 4° C., 1 mM Na3VO4, 1 mM PMSF (phenylmethylsulphonyl fluoride), 1 mM dithiothreitol, 1 μg/ml aprotinin, 1 μg/ml pepstatin, 1 μg/ml leupeptin), using 1.0 ml per 2×10^7 cells. Lysis was achieved using a sonication homogeniser, following which the lysate was centrifuged at 41,000 g for 35 minutes. Aspirated supernatant was pumped onto a 5 mm diameter chromatography column containing 1.0 ml CM sepharose Fast Flow (Amersham Pharmacia Biotech) which had been equilibrated in lysis buffer. A baseline level of UV absorbance for the eluent was reached after washing the column with 12 ml of lysis buffer followed by 7 ml of wash buffer (50 mM HEPES pH7.4 at 4° C., 1 mM dithiothreitol). […]

Assay [1] deals with drug-resistant MCF7-ADR human breast tumour cells. Description: In vitro drug-resistant cell phenotype and substrate phosphorylation assay (phosphohistone H3 levels). The class given is cell-based. To be noted: NCI/ADR-RES, 24 hours of treatment, read-out: IC50 (inhibition of phosphohistone H3 levels). On the procedure: (d) In Vitro Drug-Resistant Cell Phenotype and Substrate Phosphorylation Assay.
This assay is used to determine the cellular effects of compounds on drug-resistant MCF7-ADR human breast tumour cells in vitro.
Compounds typically cause inhibition of levels of phosphohistoneH3 and an increase in the nuclear area of treated cells.
0.8×10^4 MCF7-ADR cells per well were plated in 100 μl DMEM media (containing 10% FCS (foetal calf serum) and 1% glutamine) in costar 96 well plates and left overnight at 37° C. and 5% CO2 to adhere.
All other procedures are identical to those for the above assay using SW620 cells.
The compounds of the invention generally have EC50 values for inhibition of phosphohistone H3 levels of 0.5 nM to 0.1 μM.

The subject of assay [2] is SW620 human colon tumour cells. Description: In vitro cell phenotype and substrate phosphorylation assay (phosphohistone H3 levels). The class given is cell-based. To be noted: SW-620, 24 hours of treatment, read-out: IC50 (inhibition of phosphohistone H3 levels). On the procedure:
(c) In Vitro Cell Phenotype and Substrate Phosphorylation Assay
This assay is used to determine the cellular effects of compounds on SW620 human colon tumour cells in vitro. Compounds typically cause inhibition of levels of phosphohistone H3 and an increase in the nuclear area of the cells.
10^4 SW620 cells per well were plated in 100 μl DMEM media (containing 10% FCS and 1% glutamine) (DMEM is Dulbecco's Modified Eagle's Medium (Sigma D6546)) in costar 96 well plates and left overnight at 37° C. and 5% CO2 to adhere. The cells were then dosed with compound diluted in media (50 μl is added to each well to give 0.00015μ-1 μM concentrations of compound) and after 24 hours of treatment with compound, the cells were fixed.
The cells were first examined using a light microscope and any cellular changes in morphology were noted. 100 μl of 3.7% formaldehyde was then added to each well, and the plate was left for at least 30 minutes at room temperature. Decanting and tapping the plate on a paper towel removed the fixative and plates were then washed once in PBS (Dulbecco's Phosphate Buffered Saline (Sigma D8537)) using an automated plate washer. 100 μl PBS and 0.5% triton X-100 was added and the plates were put on a shaker for 5 minutes. The plates were washed in 100 μl PBS and solution tipped off. 50 μl of primary antibody, 1:500 rabbit anti-phosphohistone H3 in PBS 1% BSA (bovine serum albumin) and 0.5% tween, was added. Anti-phosphohistone H3 rabbit polyclonal 06-750 was purchased from Upstate Biotechnology. The plates were left 1 hour at room temperature on a shaker.
The next day, the antibody was tipped off and the plates were washed twice with PBS. In an unlit area, 50 μl of secondary antibody, 1:10,000 Hoechst and 1:200 Alexa Fluor 488 goat anti rabbit IgGA (cat no. 11008 molecular probes) in PBS 1% BSA, 0.5% tween was added. The plates were wrapped in tin foil and shaken for 1 hour at room temperature. The antibody was tipped off and plates were washed twice with PBS. […] 100 μl PBS was added to each well and the plates were sealed ready to analyse. […]

T1 sequence (Q96GD4 whole entry): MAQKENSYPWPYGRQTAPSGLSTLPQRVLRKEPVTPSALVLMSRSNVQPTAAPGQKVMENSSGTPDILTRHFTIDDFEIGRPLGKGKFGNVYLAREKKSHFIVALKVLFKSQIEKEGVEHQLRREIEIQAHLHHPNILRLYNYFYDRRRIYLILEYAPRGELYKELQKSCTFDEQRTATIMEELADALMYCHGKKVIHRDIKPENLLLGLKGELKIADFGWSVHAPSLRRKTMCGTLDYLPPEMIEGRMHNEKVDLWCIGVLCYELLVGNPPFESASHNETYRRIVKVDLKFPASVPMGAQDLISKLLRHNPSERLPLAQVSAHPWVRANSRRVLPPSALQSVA
T1 sequence (Q9NQS7 826-918 partner): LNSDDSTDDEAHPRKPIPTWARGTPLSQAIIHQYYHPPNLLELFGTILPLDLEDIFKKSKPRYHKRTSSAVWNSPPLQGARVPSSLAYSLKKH

As to `CCOc1cc(OC[C@H]2CCCN2C)c2c(Nc3cnn(CC(=O)Nc4cccc(F)c4F)c3)ncnc2c1` [Compound 1, N-(2,3-difluorophenyl)-2-{4-[(7-ethoxy-5-{[(2R)-1-methylpyrrolidin-2-yl]methoxy}quinazolin-4-yl)amino]-1H-pyrazol-1-yl}acetamide], the values for the pIC50 (on aurora B-INCENP enzyme; in assay [1]; in assay [2]) were 9.30, 7.77 and 8.26, respectively.
Turning to `CCOc1cc(OC[C@H]2CCCN2)c2c(Nc3cnn(CC(=O)Nc4cccc(F)c4F)c3)ncnc2c1` [Compound 2, N-(2,3-difluorophenyl)-2-[4-({7-ethoxy-5-[(2R)-pyrrolidin-2-ylmethoxy]quinazolin-4-yl}amino)-1H-pyrazol-1-yl]acetamide], the pIC50 at aurora B-INCENP enzyme is 9.30; in assay [1], 7.70; in assay [2] it was 8.70.
Turning to `CCOc1cc(OC[C@H]2COCCN2)c2c(Nc3cnn(CC(=O)Nc4cccc(F)c4F)c3)ncnc2c1` [Compound 3, N-(2,3-difluorophenyl)-2-[4-({7-ethoxy-5-[(3R)-morpholin-3-ylmethoxy]quinazolin-4-yl}amino)-1H-pyrazol-1-yl]acetamide], the pIC50 at aurora B-INCENP enzyme is 10.00; in assay [1], 8.40; in assay [2], 8.70.

As usually defined, the pIC50 is the negative decadic logarithm of the IC50, by convention in mol/L.

The record behind these values is patent US20080194556A1, “Quinazolines and Their Use as Aurora Kinase Inhibitors” (ASTRAZENECA AB, priority 2005, published 2008).
